Test results from the NIST ThermoML archive (doi:10.1016/j.fluid.2014.09.017).
Several values for one entry are separate records, joined by “and”; a condition that tells them apart may be missing. Identical values can stand only once. Numbers after ± are expanded uncertainties.

Conditions: for vapor or sublimation pressure: Liquid, Closed cell (Static) method; for speed of sound: Gas, Cylindrical cavity resonance method

SMILES: CC(C)C [2-methylpropane]
- vapor or sublimation pressure (258.92 K): 91.82 ± 0.62 kPa
- vapor or sublimation pressure (264.24 K): 112.99 ± 0.63 kPa
- vapor or sublimation pressure (265.67 K): 119.32 ± 0.63 kPa
- vapor or sublimation pressure (267.2 K): 126.35 ± 0.64 kPa
- speed of sound (270 K, 54.63 kPa): 203.09 ± 0.073 m/s
- speed of sound (270 K, 68.26 kPa): 202.24 ± 0.073 m/s
- speed of sound (270 K, 75.99 kPa): 201.75 ± 0.073 m/s
- speed of sound (270 K, 86.24 kPa): 201.09 ± 0.073 m/s
- speed of sound (270 K, 94.7 kPa): 200.54 ± 0.073 m/s
- speed of sound (270 K, 103.06 kPa): 200 ± 0.073 m/s
- speed of sound (270 K, 111.76 kPa): 199.42 ± 0.072 m/s
- vapor or sublimation pressure (273 K): 156 ± 0.65 kPa
- vapor or sublimation pressure (273.15 K): 156.85 ± 0.65 kPa
- vapor or sublimation pressure (275.31 K): 169.22 ± 0.66 kPa
- vapor or sublimation pressure (278.94 K): 191.71 ± 0.67 kPa
- speed of sound (280 K, 52.41 kPa): 206.99 ± 0.073 m/s
- speed of sound (280 K, 62.45 kPa): 206.43 ± 0.073 m/s
- speed of sound (280 K, 70.73 kPa): 205.97 ± 0.073 m/s
- speed of sound (280 K, 82.68 kPa): 205.28 ± 0.073 m/s
- speed of sound (280 K, 94.96 kPa): 204.58 ± 0.073 m/s
- speed of sound (280 K, 108.81 kPa): 203.77 ± 0.073 m/s
- speed of sound (280 K, 121.29 kPa): 203.03 ± 0.072 m/s
- speed of sound (280 K, 133.05 kPa): 202.32 ± 0.072 m/s
- speed of sound (280 K, 145.5 kPa): 201.57 ± 0.072 m/s
- vapor or sublimation pressure (280 K): 198.68 ± 0.68 kPa
- vapor or sublimation pressure (281.24 K): 207.12 ± 0.69 kPa
- vapor or sublimation pressure (282.81 K): 218.08 ± 0.69 kPa
- vapor or sublimation pressure (284.02 K): 226.9 ± 0.7 kPa
- vapor or sublimation pressure (285.82 K): 240.51 ± 0.71 kPa
- vapor or sublimation pressure (287.25 K): 251.7 ± 0.72 kPa
- vapor or sublimation pressure (288.67 K): 263.24 ± 0.73 kPa
- speed of sound (290 K, 58.49 kPa): 210.38 ± 0.073 m/s
- speed of sound (290 K, 78.62 kPa): 209.35 ± 0.073 m/s
- speed of sound (290 K, 97.12 kPa): 208.38 ± 0.073 m/s
- speed of sound (290 K, 116.17 kPa): 207.38 ± 0.073 m/s
- speed of sound (290 K, 139.15 kPa): 206.14 ± 0.073 m/s
- speed of sound (290 K, 147.23 kPa): 205.68 ± 0.072 m/s
- speed of sound (290 K, 158.57 kPa): 205.07 ± 0.073 m/s
- speed of sound (290 K, 161.39 kPa): 204.9 ± 0.073 m/s
- speed of sound (290 K, 173.83 kPa): 204.22 ± 0.072 m/s
- speed of sound (290 K, 177.47 kPa): 204 ± 0.073 m/s
- speed of sound (290 K, 193.67 kPa): 203.09 ± 0.072 m/s
- vapor or sublimation pressure (290 K): 274.38 ± 0.74 kPa
- vapor or sublimation pressure (291.96 K): 291.5 ± 0.75 kPa
- vapor or sublimation pressure (291.99 K): 291.68 ± 0.75 kPa
- vapor or sublimation pressure (293.5 K): 305.47 ± 0.77 kPa
- vapor or sublimation pressure (294.79 K): 317.56 ± 0.78 kPa
- vapor or sublimation pressure (296.3 K): 332.18 ± 0.79 kPa
- vapor or sublimation pressure (299.97 K): 369.83 ± 0.83 kPa
- speed of sound (300 K, 37.47 kPa): 214.93 ± 0.074 m/s
- speed of sound (300 K, 57.39 kPa): 214.01 ± 0.074 m/s
- speed of sound (300 K, 80.89 kPa): 212.92 ± 0.073 m/s
- speed of sound (300 K, 107.72 kPa): 211.65 ± 0.073 m/s
- speed of sound (300 K, 127.82 kPa): 210.67 ± 0.073 m/s
- speed of sound (300 K, 150.12 kPa): 209.58 ± 0.073 m/s
- speed of sound (300 K, 168.57 kPa): 208.67 ± 0.073 m/s
- speed of sound (300 K, 201.3 kPa): 207 ± 0.072 m/s
- speed of sound (300 K, 235.37 kPa): 205.23 ± 0.072 m/s
- vapor or sublimation pressure (301.05 K): 381.52 ± 0.84 kPa
- vapor or sublimation pressure (302.76 K): 400.6 ± 0.86 kPa
- vapor or sublimation pressure (304.46 K): 420.14 ± 0.88 kPa
- vapor or sublimation pressure (305.97 K): 438.06 ± 0.9 kPa and 438.12 ± 0.9 kPa
- vapor or sublimation pressure (307.39 K): 455.55 ± 0.92 kPa
- vapor or sublimation pressure (308.82 K): 473.64 ± 0.94 kPa
- speed of sound (310 K, 45.64 kPa): 218.03 ± 0.074 m/s
- speed of sound (310 K, 76.78 kPa): 216.71 ± 0.074 m/s
- speed of sound (310 K, 107.37 kPa): 215.4 ± 0.074 m/s
- speed of sound (310 K, 141.66 kPa): 213.88 ± 0.073 m/s
- speed of sound (310 K, 178.43 kPa): 212.23 ± 0.073 m/s
- speed of sound (310 K, 212.65 kPa): 210.65 ± 0.073 m/s
- speed of sound (310 K, 247.33 kPa): 209.01 ± 0.073 m/s
- speed of sound (310 K, 299.72 kPa): 206.46 ± 0.072 m/s
- vapor or sublimation pressure (310 K): 488.84 ± 0.96 kPa
- vapor or sublimation pressure (312.11 K): 516.99 ± 0.99 kPa
- vapor or sublimation pressure (314.51 K): 550.49 ± 1 kPa
- vapor or sublimation pressure (314.52 K): 550.72 ± 1 kPa
- vapor or sublimation pressure (316.61 K): 581.22 ± 1.1 kPa
- speed of sound (320 K, 57.93 kPa): 220.96 ± 0.075 m/s
- speed of sound (320 K, 83.1 kPa): 219.97 ± 0.075 m/s
- speed of sound (320 K, 109.17 kPa): 218.94 ± 0.074 m/s
- speed of sound (320 K, 159.3 kPa): 216.91 ± 0.074 m/s
- speed of sound (320 K, 192.01 kPa): 215.56 ± 0.074 m/s
- speed of sound (320 K, 262.64 kPa): 212.56 ± 0.073 m/s
- speed of sound (320 K, 289.64 kPa): 211.37 ± 0.073 m/s
- speed of sound (320 K, 343.58 kPa): 208.94 ± 0.072 m/s
- speed of sound (320 K, 383.31 kPa): 207.1 ± 0.072 m/s
- vapor or sublimation pressure (320 K): 633.44 ± 1.1 kPa
- vapor or sublimation pressure (322 K): 665.79 ± 1.2 kPa
- vapor or sublimation pressure (324.13 K): 701.6 ± 1.2 kPa
- vapor or sublimation pressure (326 K): 734.19 ± 1.3 kPa and 734.22 ± 1.3 kPa
- vapor or sublimation pressure (326.58 K): 744.59 ± 1.3 kPa
- vapor or sublimation pressure (328 K): 770.36 ± 1.3 kPa
- vapor or sublimation pressure (328.63 K): 781.99 ± 1.3 kPa
- speed of sound (330 K, 39.62 kPa): 224.99 ± 0.076 m/s
- speed of sound (330 K, 69.47 kPa): 223.92 ± 0.075 m/s
- speed of sound (330 K, 107.25 kPa): 222.55 ± 0.075 m/s
- speed of sound (330 K, 151.31 kPa): 220.92 ± 0.075 m/s
- speed of sound (330 K, 195.14 kPa): 219.27 ± 0.074 m/s
- speed of sound (330 K, 246.95 kPa): 217.27 ± 0.074 m/s
- speed of sound (330 K, 297.38 kPa): 215.27 ± 0.073 m/s
- speed of sound (330 K, 339.74 kPa): 213.55 ± 0.073 m/s
- speed of sound (330 K, 422.84 kPa): 210.06 ± 0.072 m/s
- speed of sound (330 K, 480.1 kPa): 207.54 ± 0.072 m/s
- vapor or sublimation pressure (330 K): 807.67 ± 1.4 kPa
- vapor or sublimation pressure (332 K): 846.32 ± 1.4 kPa
- vapor or sublimation pressure (332.15 K): 849.38 ± 1.4 kPa
- vapor or sublimation pressure (334 K): 886.42 ± 1.5 kPa
- vapor or sublimation pressure (334.71 K): 900.88 ± 1.5 kPa
- vapor or sublimation pressure (338.87 K): 989.76 ± 1.6 kPa
- vapor or sublimation pressure (342 K): 1060.5 ± 1.7 kPa
- vapor or sublimation pressure (342.57 K): 1073.8 ± 1.7 kPa
- vapor or sublimation pressure (344 K): 1107.8 ± 1.8 kPa
- vapor or sublimation pressure (344.84 K): 1128.1 ± 1.8 kPa
- vapor or sublimation pressure (347.48 K): 1193.6 ± 1.9 kPa
- vapor or sublimation pressure (350 K): 1258.8 ± 2 kPa
- vapor or sublimation pressure (354.89 K): 1392.5 ± 2.2 kPa
- vapor or sublimation pressure (357.13 K): 1457.2 ± 2.3 kPa
- vapor or sublimation pressure (360 K): 1543.1 ± 2.5 kPa
- vapor or sublimation pressure (362.41 K): 1618.3 ± 2.6 kPa
- vapor or sublimation pressure (364.65 K): 1690.7 ± 2.7 kPa
- vapor or sublimation pressure (367.12 K): 1773.1 ± 2.8 kPa
- vapor or sublimation pressure (370 K): 1872.6 ± 3 kPa
- vapor or sublimation pressure (373.25 K): 1990.5 ± 3.2 kPa
- vapor or sublimation pressure (375.82 K): 2087.2 ± 3.3 kPa
- vapor or sublimation pressure (377.95 K): 2170.2 ± 3.5 kPa
- vapor or sublimation pressure (380 K): 2252.2 ± 3.6 kPa
- vapor or sublimation pressure (382.69 K): 2363.4 ± 3.8 kPa
- vapor or sublimation pressure (385.14 K): 2468.3 ± 3.9 kPa
- vapor or sublimation pressure (387.96 K): 2593.6 ± 4.1 kPa
- vapor or sublimation pressure (390 K): 2687.2 ± 4.3 kPa
- vapor or sublimation pressure (390.02 K): 2688.3 ± 4.3 kPa
- vapor or sublimation pressure (392.64 K): 2812.8 ± 4.5 kPa
- vapor or sublimation pressure (392.7 K): 2815.5 ± 4.5 kPa
- vapor or sublimation pressure (394.37 K): 2897.1 ± 4.6 kPa
- vapor or sublimation pressure (394.77 K): 2917.1 ± 4.6 kPa
- vapor or sublimation pressure (397.49 K): 3055 ± 4.9 kPa
- vapor or sublimation pressure (399.62 K): 3166.9 ± 5 kPa
- vapor or sublimation pressure (400 K): 3187.2 ± 5.1 kPa
- vapor or sublimation pressure (400.09 K): 3191.9 ± 5.1 kPa
- vapor or sublimation pressure (400.19 K): 3197.4 ± 5.1 kPa
- vapor or sublimation pressure (402.45 K): 3320.9 ± 5.3 kPa
- vapor or sublimation pressure (402.46 K): 3321.8 ± 5.3 kPa
- vapor or sublimation pressure (403.93 K): 3404.5 ± 5.4 kPa
- vapor or sublimation pressure (404.71 K): 3449.2 ± 5.5 kPa
- vapor or sublimation pressure (405 K): 3465.7 ± 5.5 kPa
- vapor or sublimation pressure (405.99 K): 3523.6 ± 5.6 kPa
